Test results published in patent US10189842B2 (Agency for Science, Technology and Research, priority 2013, dated 2019).

Tested on: HEK293-STF3A cells
Assay: STF3A assay (luciferase reporter)
Type: cell-based, Human
Conditions: Homo sapiens, 24 h, 1 day of treatment
Outline: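 HEK293 cells carrying the STF reporter and expressing Wnt3A, seeded 2×10^4 per well overnight, then treated 1 day with compound at final 50 μM to 1.5 nM. Luciferase activity read by luminescence after Steady-Glo reagent, 10 min at room temperature.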

| Structure (SMILES) | IC50 |
| --- | --- |
| Cc1ccc(-c2cnc(NC(=O)CCC(=O)N3CCCn4nc(C)cc43)cn2)cn1 [Compound 127, 4-(2-methyl-6,7-dihydropyrazolo[1,5-a]pyrimidin-4(5H)-yl)-N-(5-(6-methylpyridin-3-yl)pyrazin-2-yl)-4-oxobutanamide] | < 1000 nM |
| Cc1cncc(-c2ccc(NC(=O)CCC(=O)N3CCCn4nc(C)cc43)nc2)n1 [Compound 128, 4-(2-methyl-6,7-dihydropyrazolo[1,5-a]pyrimidin-4(5H)-yl)-N-(5-(6-methylpyrazin-2-yl)pyridin-2-yl)-4-oxobutanamide] | < 100 nM |
| Cc1cc2n(n1)CCCN2C(=O)CCC(=O)Nc1ccc(-c2cnccn2)cc1 [Compound 129, 4-(2-methyl-6,7-dihydropyrazolo[1,5-a]pyrimidin-4(5H)-yl)-4-oxo-N-(4-(pyrazin-2-yl)phenyl)butanamide] | < 100 nM |
| Cc1cc2n(n1)CCCN2C(=O)CCC(=O)N(C)c1cc(-c2cccc(Cl)c2)no1 [Compound 130, N-(3-(3-chlorophenyl)isoxazol-5-yl)-N-methyl-4-(2-methyl-6,7-dihydropyrazolo[1,5-a]pyrimidin-4(5H)-yl)-4-oxobutanamide] | > 10000 nM |
| Cc1cc2n(n1)CCCN2CCCCNc1cc(-c2cccc(Cl)c2)no1 [Compound 131, 3-(3-chlorophenyl)-N-(4-(2-methyl-6,7-dihydropyrazolo[1,5-a]pyrimidin-4(5H)-yl)butyl)isoxazol-5-amine] | > 10000 nM |
| Cc1cc2n(n1)CCCN2C(=O)C(C)CC(=O)Nc1cc(-c2cccc(Cl)c2)no1 (stereo not shown) [Compound 132, N-(3-(3-chlorophenyl)isoxazol-5-yl)-3-methyl-4-(2-methyl-6,7-dihydropyrazolo[1,5-a]pyrimidin-4(5H)-yl)-4-oxobutanamide] | > 10000 nM |
| O=C(CCC(=O)N1CCCn2nccc21)Nc1cc(-c2cccc(Cl)c2)no1 [Compound 133, N-(3-(3-chlorophenyl)isoxazol-5-yl)-4-(6,7-dihydropyrazolo[1,5-a]pyrimidin-4(5H)-yl)-4-oxobutanamide] | > 10000 nM |
| O=C(CCC(=O)N1CCCn2nc(C(F)(F)F)cc21)Nc1cc(-c2cccc(Cl)c2)no1 [Compound 134, N-(3-(3-chlorophenyl)isoxazol-5-yl)-4-oxo-4-(2-(trifluoromethyl)-6,7-dihydropyrazolo[1,5-a]pyrimidin-4(5H)-yl)butanamide] | < 100 nM |
| COc1cc2n(n1)CCCN2C(=O)CCC(=O)Nc1cc(-c2cccc(Cl)c2)no1 [Compound 135, N-(3-(3-chlorophenyl)isoxazol-5-yl)-4-(2-methoxy-6,7-dihydropyrazolo[1,5-a]pyrimidin-4(5H)-yl)-4-oxobutanamide] | > 10000 nM |
| COC(=O)c1cc2n(n1)CCCN2C(=O)CCC(=O)Nc1cc(-c2cccc(Cl)c2)no1 [Compound 136, methyl 4-(4-(3-(3-chlorophenyl)isoxazol-5-ylamino)-4-oxobutanoyl)-4,5,6,7-tetrahydropyrazolo[1,5-a]pyrimidine-2-carboxylate] | > 10000 nM |
| CCc1cc2n(n1)CCCN2C(=O)CCC(=O)Nc1cc(-c2cccc(Cl)c2)no1 [Compound 137, N-(3-(3-chlorophenyl)isoxazol-5-yl)-4-(2-ethyl-6,7-dihydropyrazolo[1,5-a]pyrimidin-4(5H)-yl)-4-oxobutanamide] | < 100 nM |
| Cc1cc2n(n1)CCN2C(=O)CCC(=O)Nc1cc(-c2cccc(Cl)c2)no1 [Compound 138, N-(3-(3-chlorophenyl)isoxazol-5-yl)-4-(6-methyl-2,3-dihydro-1H-imidazo[1,2-b]pyrazol-1-yl)-4-oxobutanamide] | > 10000 nM |
| Cc1cc2n(n1)CC(C)CN2C(=O)CCC(=O)Nc1ccc(-c2ccccc2)nn1 (stereo not shown) [Compound 139, 4-(2,6-dimethyl-6,7-dihydropyrazolo[1,5-a]pyrimidin-4(5H)-yl)-4-oxo-N-(6-phenylpyridazin-3-yl)butanamide] | < 100 nM |
| Cc1cc2n(n1)CC(C)CN2C(=O)CCC(=O)Nc1ccc(-c2cccnc2)nc1 (stereo not shown) [Compound 140, N-(2,3′-bipyridin-5-yl)-4-(2,6-dimethyl-6,7-dihydropyrazolo[1,5-a]pyrimidin-4(5H)-yl)-4-oxobutanamide] | < 100 nM |
| Cc1cc2n(n1)CC(C)CN2C(=O)CCC(=O)Nc1ccc(-c2cccnc2)nn1 (stereo not shown) [Compound 141, 4-(2,6-dimethyl-6,7-dihydropyrazolo[1,5-a]pyrimidin-4(5H)-yl)-4-oxo-N-(6-(pyridin-3-yl)pyridazin-3-yl)butanamide] | < 100 nM |
| Cc1cncc(-c2ccc(NC(=O)CCC(=O)N3CC(C)Cn4nc(C)cc43)nc2)c1 (stereo not shown) [Compound 142, 4-(2,6-dimethyl-6,7-dihydropyrazolo[1,5-a]pyrimidin-4(5H)-yl)-N-(5′-methyl-[3,3′-bipyridin]-6-yl)-4-oxobutanamide] | < 100 nM |
| Cc1cncc(-c2ccc(NC(=O)CCC(=O)N3CC(C)Cn4nc(C)cc43)cn2)c1 (stereo not shown) [Compound 144, 4-(2,6-dimethyl-6,7-dihydropyrazolo[1,5-a]pyrimidin-4(5H)-yl)-N-(5′-methyl-[2,3′-bipyridin]-5-yl)-4-oxobutanamide] | < 100 nM |

| Structure (SMILES) | IC50 |
| --- | --- |
| Cc1cc2n(n1)CCCN2C(=O)CC(C)C(=O)Nc1ccc(-c2cccnc2)nc1 (stereo not shown) [Compound 145, N-([2,3′-bipyridin]-5-yl)-2-methyl-4-(2-methyl-6,7-dihydropyrazolo[1,5-a]pyrimidin-4(5H)-yl)-4-oxobutanamide] | < 100 nM |
| Cc1cc2n(n1)CCCN2C(=O)CC(C)C(=O)Nc1ccc(-c2ccccc2)nn1 (stereo not shown) [Compound 146, 2-methyl-4-(2-methyl-6,7-dihydropyrazolo[1,5-a]pyrimidin-4(5H)-yl)-4-oxo-N-(6-phenylpyridazin-3-yl)butanamide] | < 100 nM |
| Cc1cc2n(n1)CCCN2C(=O)CC(C)C(=O)Nc1ccc(-c2cccnc2)cn1 (stereo not shown) [Compound 147, N-([3,3′-bipyridin]-6-yl)-2-methyl-4-(2-methyl-6,7-dihydropyrazolo[1,5-a]pyrimidin-4(5H)-yl)-4-oxobutanamide] | < 100 nM |
| Cc1ccnc(-c2ccc(NC(=O)CCC(=O)N3CCCn4nc(C)cc43)nc2)c1 [Compound 148, N-(4-methyl-2,3′-bipyridin-6′-yl)-4-(2-methyl-6,7-dihydropyrazolo[1,5-a]pyrimidin-4(5H)-yl)-4-oxobutanamide] | < 100 nM |
| Cc1cnc(-c2ccc(NC(=O)CCC(=O)N3CCCn4nc(C)cc43)nc2)cn1 [Compound 149, 4-(2-methyl-6,7-dihydropyrazolo[1,5-a]pyrimidin-4(5H)-yl)-N-(5-(5-methylpyrazin-2-yl)pyridin-2-yl)-4-oxobutanamide] | < 100 nM |
| Cc1cncc(-c2ccc(NC(=O)C(C)CC(=O)N3CCCn4nc(C)cc43)cn2)c1 (stereo not shown) [Compound 150, 2-methyl-4-(2-methyl-6,7-dihydropyrazolo[1,5-a]pyrimidin-4(5H)-yl)-N-(5′-methyl-[2,3′-bipyridin]-5-yl)-4-oxobutanamide] | < 100 nM |
| Cc1cncc(-c2ccc(NC(=O)C(C)CC(=O)N3CCCn4nc(C)cc43)nc2)n1 (stereo not shown) [Compound 151, 2-methyl-4-(2-methyl-6,7-dihydropyrazolo[1,5-a]pyrimidin-4(5H)-yl)-N-(5-(6-methylpyrazin-2-yl)pyridin-2-yl)-4-oxobutanamide] | < 100 nM |
| Cc1cncc(-c2ccc(NC(=O)C(C)CC(=O)N3CCCn4nc(C)cc43)nc2)c1 (stereo not shown) [Compound 152, 2-methyl-4-(2-methyl-6,7-dihydropyrazolo[1,5-a]pyrimidin-4(5H)-yl)-N-(5′-methyl-[3,3′-bipyridin]-6-yl)-4-oxobutanamide] | < 100 nM |
| Cc1cc2n(n1)CCCN2C(=O)CCC(=O)Nc1ccc(-c2cncnc2)cn1 [Compound 153, 4-(2-methyl-6,7-dihydropyrazolo[1,5-a]pyrimidin-4(5H)-yl)-4-oxo-N-(5-(pyrimidin-5-yl)pyridin-2-yl)butanamide] | < 100 nM |
| Cc1cc2n(n1)CCCN2C(=O)CCC(=O)Nc1ccc(-c2cncnc2)nc1 [Compound 154, 4-(2-methyl-6,7-dihydropyrazolo[1,5-a]pyrimidin-4(5H)-yl)-4-oxo-N-(6-(pyrimidin-5-yl)pyridin-3-yl)butanamide] | < 1000 nM |
| Cc1cc2n(n1)CCCN2C(=O)CC(C)C(=O)Nc1ccc(-c2cccnc2)nn1 (stereo not shown) [Compound 155] | < 100 nM |
| Cc1cc2n(n1)CCCN2C(=O)CCC(=O)Nc1cnc(-c2ccccc2)c(F)c1 [Compound 156, N-(5-fluoro-6-phenylpyridin-3-yl)-4-(2-methyl-6,7-dihydropyrazolo[1,5-a]pyrimidin-4(5H)-yl)-4-oxobutanamide] | < 100 nM |
| Cc1cncc(-c2ccc(NC(=O)CCC(=O)N3CC(C)Cn4nc(C)cc43)nc2)n1 (stereo not shown) [Compound 157, 4-(2,6-dimethyl-6,7-dihydropyrazolo[1,5-a]pyrimidin-4(5H)-yl)-N-(5-(6-methylpyrazin-2-yl)pyridin-2-yl)-4-oxobutanamide] | < 100 nM |
| Cc1cncc(-c2ncc(NC(=O)CCC(=O)N3CCCn4nc(C)cc43)cc2F)c1 [Compound 158, N-(3-fluoro-5′-methyl-[2,3′-bipyridin]-5-yl)-4-(2-methyl-6,7-dihydropyrazolo[1,5-a]pyrimidin-4(5H)-yl)-4-oxobutanamide] | < 100 nM |
| Cc1cc2n(n1)CCCN2C(=O)CC(C)C(=O)Nc1cc(-c2cccc(Cl)c2)no1 (stereo not shown) [Compound 159, N-(3-(3-chlorophenyl)isoxazol-5-yl)-2-methyl-4-(2-methyl-6,7-dihydropyrazolo[1,5-a]pyrimidin-4(5H)-yl)-4-oxobutanamide] | < 5000 nM |
| Cc1cc2n(n1)CC(C)CN2C(=O)CCC(=O)Nc1ccc(-c2cncc(F)c2)nc1 (stereo not shown) [Compound 162, 4-(2,6-dimethyl-6,7-dihydropyrazolo[1,5-a]pyrimidin-4(5H)-yl)-N-(5′-fluoro-[2,3′-bipyridin]-5-yl)-4-oxobutanamide] | < 100 nM |
| Cc1cc2n(n1)CC(C)CN2C(=O)CCC(=O)Nc1ccc(-c2cncc(F)c2)cn1 (stereo not shown) [Compound 163, 4-(2,6-dimethyl-6,7-dihydropyrazolo[1,5-a]pyrimidin-4(5H)-yl)-N-(5′-fluoro-[3,3′-bipyridin]-6-yl)-4-oxobutanamide] | < 100 nM |
